This note sets out measurements from PMC7697888, “Comprehensive Set of Tertiary Complex Structures and Palmitic Acid Binding Provide Molecular Insights into Ligand Design for RXR Isoforms” (International Journal of Molecular Sciences, 2020).

One test deals with T1, RXRγ (Homo sapiens, UniProt P48443).
T1 construct: pFA-CMV-hRXRγ-LBD (NR2B3, UniProt entry: P48443-1, aa 229–463); expressed in transfected cells; host or cells: HEK293T
T1 sequence (P48443 229-463): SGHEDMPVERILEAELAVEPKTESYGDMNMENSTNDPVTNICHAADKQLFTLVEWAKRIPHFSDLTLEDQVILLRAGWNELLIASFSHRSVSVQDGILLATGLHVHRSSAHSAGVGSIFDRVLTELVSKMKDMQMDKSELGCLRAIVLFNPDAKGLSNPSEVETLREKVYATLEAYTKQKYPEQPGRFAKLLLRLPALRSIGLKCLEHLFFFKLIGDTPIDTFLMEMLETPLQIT
The experiment in a line: Gal4 hybrid reporter gene assay RXRγ. To be noted: HEK293T; at 100 µM concentrations and above. The format is cell-based. Here is the method:
(§1) The Gal4 hybrid reporter gene assays for RXRα, RXRβ and RXRγ were performed as described previously using the Gal4-fusion receptor plasmids pFA-CMV-hRXRα-LBD (NR2B1, UniProt entry: P19793, aa 225–462), pFA-CMV-hRXRβ-LBD (NR2B2, UniProt entry: P28702-1, aa 294–533) and pFA-CMV-hRXRγ-LBD (NR2B3, UniProt entry: P48443-1, aa 229–463), which code for the hinge region and LBD of the canonical RXR isoform. pFR-Luc (Stratagene, San Diego, CA, USA) as the reporter plasmid and pRL-SV40 (Promega, Madison, WI, USA) as the internal control were used. HEK293T cells were grown in DMEM high-glucose medium (supplemented with 10% fetal calf serum (FCS), sodium pyruvate (1 mM), penicillin (100 U/mL) and streptomycin (100 μg/mL)) at 37 °C and 5% CO2, and seeded in 96-well plates (3.0 × 10^4 cells/well) on the day before transfection. Right before transfection, medium was changed to Opti-MEM without supplements and cells were transiently transfected using the Lipofectamine LTX reagent (Invitrogen, Carlsbad, CA, USA) according to the manufacturer’s protocol with pFR-Luc (Stratagene), pRL-SV40 (Promega) and the respective pFA-CMV-hRXR-LBD clone. After 5 h of incubation, medium was changed to Opti-MEM (supplemented with penicillin (100 U/mL) and streptomycin (100 μg/mL)) additionally containing 0.1% DMSO and the respective test compounds or 0.1% DMSO alone as the untreated control. After overnight incubation (12–14 h), cells were assayed for luciferase activity using the Dual-Glo luciferase assay system (Promega) according to the manufacturer’s protocol on a Tecan Spark M10 luminometer (Tecan Deutschland GmbH, Crailsheim, Germany). Each sample was tested in at least three biologically independent repeats in duplicates. Data were normalized for transfection efficiency and cell growth by division of firefly luciferase data by Renilla luciferase data and multiplying by 1000 to obtain relative light units (RLUs). Fold activation denotes the mean RLU of test compounds at a respective concentration divided by the mean RLU of untreated control. […]
On to `CCCCCCCCCCCCCC(=O)O` [MA, myristic acid], for which the “RXRγ activation in Gal4 hybrid reporter gene assay” value (“RXRγ activation” for short) is given as “activated”.

For the compound `CCCCCCCCCCCCCCCC(=O)O` [PA, palmitic acid], the “RXRγ activation” value is reported as “activated”.

On to `CCCCCCCCCCCCCCCCCC(=O)O` [SA, stearic acid], for which the “RXRγ activation” value is on record as “activated”.

A further test relates to RXR. Put plainly: Gal4 hybrid reporter gene assays, competition with bexarotene / antagonist UVI3003 (isoform not specified). To be noted: fatty acid 10 µM, bexarotene 0.1 µM or 1 µM. In kind it is cell-based, human. How it is done:
as §1
As to `CCCCCCCCCCCCCC(=O)O` [MA, myristic acid], the “effect on bexarotene-induced RXR activation, low concentration” value (from here on “effect … low concentration”) was “tendency to further promote RXR activation”.

Consider `CCCCCCCCCCCCCCCC(=O)O` [PA, palmitic acid], for which the “effect … low concentration” value was “tendency to further promote RXR activation”.

Turning to `CCCCCCCCCCCCCCCCCC(=O)O` [SA, stearic acid], the “effect … low concentration” value is recorded as “tendency to further promote RXR activation”.

Still in this test, the particulars now being: fatty acid 100 µM, bexarotene 0.1 µM or 1 µM; not statistically significant for all fatty acids on all isoforms.
With `CCCCCCCCCCCCCC(=O)O` [MA, myristic acid], the “effect on bexarotene-induced RXR activation, higher concentration” value (shortened to “effect … higher concentration”) is given as “weak competitive behavior”.

With `CCCCCCCCCCCCCCCC(=O)O` [PA, palmitic acid], the “effect … higher concentration” value was “weak competitive behavior”.

Turning to `CCCCCCCCCCCCCCCCCC(=O)O` [SA, stearic acid], the “effect … higher concentration” value is “weak competitive behavior”.

A further test concerns the target T2, RXRα (Homo sapiens, UniProt P19793).
T2 construct: pFA-CMV-hRXRα-LBD (NR2B1, UniProt entry: P19793, aa 225–462); expressed in transfected cells; host or cells: HEK293T
T2 sequence (P19793 225-462): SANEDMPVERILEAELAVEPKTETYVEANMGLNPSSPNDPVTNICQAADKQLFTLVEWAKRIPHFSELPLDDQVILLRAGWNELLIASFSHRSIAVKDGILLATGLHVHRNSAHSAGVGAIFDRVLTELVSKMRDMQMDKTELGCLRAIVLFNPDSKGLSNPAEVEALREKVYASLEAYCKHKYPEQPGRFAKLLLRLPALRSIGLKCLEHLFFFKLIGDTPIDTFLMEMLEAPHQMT
Put plainly: Gal4 hybrid reporter gene assay RXRα. The format is cell-based. To be noted: HEK293T; at 100 µM concentrations and above. Here is the method: as §1
For `CCCCCCCCCCCCCC(=O)O` [MA, myristic acid], the “RXRα activation in Gal4 hybrid reporter gene assay” value (shortened to “RXRα activation”) is recorded as “activated”.

Take `CCCCCCCCCCCCCCCC(=O)O` [PA, palmitic acid]: the “RXRα activation” value is “activated”.

Turning to `CCCCCCCCCCCCCCCCCC(=O)O` [SA, stearic acid], the “RXRα activation” value is recorded as “activated”.
